Values after ≈ are worked out from the molar mass of the structure shown.
What was measured:
Staphylococcus aureus [1] = assay: Antimicrobial activity against Staphylococcus aureus assessed as diameter of inhibition zone incubated for 24 hrs by disc-diffusion method; assay type: functional
Escherichia coli [2] = assay: Antimicrobial activity against Escherichia coli assessed as diameter of inhibition zone incubated for 24 hrs by disc-diffusion method; assay type: functional
Klebsiella pneumoniae = assay: Antimicrobial activity against Klebsiella pneumoniae assessed as diameter of inhibition zone incubated for 24 hrs by disc-diffusion method; assay type: functional
Candida albicans [3] = assay: Antimicrobial activity against Candida albicans assessed as diameter of inhibition zone incubated for 24 hrs by disc-diffusion method; assay type: functional
Staphylococcus aureus [4] = assay: Antibacterial activity against methicillin resistant Staphylococcus aureus incubated for 20 hrs by broth microdilution method; assay type: functional
Candida albicans [5] = assay: Antifungal activity against Candida albicans assessed as diameter of inhibition zone at 50 to 100 ug/ml by disc-diffusion method; assay type: functional; conditions: dose 50-100 µg/ml
Aspergillus flavus = assay: Antifungal activity against Aspergillus flavus assessed as diameter of inhibition zone at 50 to 100 ug/ml by disc-diffusion method; assay type: functional; conditions: dose 50-100 µg/ml
Staphylococcus aureus [6] = assay: Antibacterial activity against Staphylococcus aureus assessed as reduction in bacterial growth incubated for 24 hrs by broth microdilution method; assay type: functional
Staphylococcus aureus [7] = assay: Antibacterial activity against Staphylococcus aureus assessed as diameter of inhibition zone; assay type: functional
Candida albicans [8] = assay: Antifungal activity against Candida albicans ATCC 90028 assessed as growth inhibition incubated for 24 hrs; assay type: functional
Pseudomonas aeruginosa [9] = assay: Antibacterial activity against Pseudomonas aeruginosa MTCC 1034 assessed as reduction in bacterial growth; assay type: functional
Bacillus subtilis [10] = assay: Antibacterial activity against Bacillus subtilis MTCC 441 assessed as reduction in bacterial growth; assay type: functional
Escherichia coli [11] = assay: Antibacterial activity against Escherichia coli ATCC 8739 assessed as reduction in bacterial growth by micro-broth dilution method; assay type: functional
Pseudomonas aeruginosa [12] = assay: Antibacterial activity against Pseudomonas aeruginosa MCCB 0035 assessed as reduction in bacterial growth by micro-broth dilution method; assay type: functional
Staphylococcus aureus [13] = assay: Antibacterial activity against Staphylococcus aureus ATCC 29213 assessed as reduction in bacterial growth by micro-broth dilution method; assay type: functional
Aspergillus fumigatus = assay: […] activity against Aspergillus fumigatus NCIM 2081 assessed as reduction in […] by micro-broth dilution method; assay type: functional
Aspergillus niger [14] = assay: […] activity against Aspergillus niger NCIM 2191 assessed as reduction in […] by micro-broth dilution method; assay type: functional
Candida albicans [15] = assay: Antifungal activity against Candida albicans NCIM 2087 assessed as fungal growth inhibition; assay type: functional
Candida albicans [16] = assay: Antifungal activity against Candida albicans assessed as fungal growth inhibition by CLSI based method; assay type: functional
Cryptococcus neoformans = assay: Antifungal activity against Cryptococcus neoformans assessed as fungal growth inhibition by CLSI based method; assay type: functional
Bacillus subtilis [17] = assay: Antibacterial activity against Bacillus subtilis ATCC 6633 assessed as reduction in microbial growth; assay type: functional
Micrococcus luteus = assay: Antibacterial activity against Micrococcus luteus IFC 12708 assessed as reduction in microbial growth; assay type: functional
Staphylococcus aureus [18] = assay: Antibacterial activity against Staphylococcus aureus ATCC 6538p assessed as reduction in microbial growth; assay type: functional
Proteus vulgaris = assay: Antibacterial activity against Proteus vulgaris ATCC 3851 assessed as reduction in microbial growth; assay type: functional
Salmonella typhimurium = assay: Antibacterial activity against Salmonella typhimurium SL1344 assessed as reduction in microbial growth; assay type: functional, Salmonella enterica subsp. enterica serovar Typhimurium; conditions: Salmonella enterica
Escherichia coli [19] = assay: Antibacterial activity against Escherichia coli ATCC 25922 assessed as reduction in microbial growth; assay type: functional
Aspergillus niger [20] = assay: Antifungal activity against Aspergillus niger assessed as fungal growth inhibition; assay type: functional
Escherichia coli [21] = assay: Antibacterial activity against Escherichia coli assessed as reduction in bacterial growth; assay type: functional
Bacillus subtilis [22] = assay: Antibacterial activity against Bacillus subtilis assessed as reduction in bacterial growth; assay type: functional

In the case of Sc1nnc(-c2ccc(Cl)cc2)n1/N=C/c1ccco1, the “diameter of the inhibition zone (DIZ)” value (Staphylococcus aureus [1]) is reported as 4 mm, the “diameter of the inhibition zone (DIZ)” value (Escherichia coli [2]) is reported as 4 mm and the “diameter of the inhibition zone (DIZ)” value (Klebsiella pneumoniae) is reported as 4 mm. For the same compound, the “diameter of the inhibition zone (DIZ)” value (Candida albicans [3]) was 4 mm.
With COc1cc(/C=C/c2ccc(OCc3cn(-c4ccc(C(=O)O)cc4)nn3)cc2)cc(OC)c1 the MIC (Staphylococcus aureus [4]) was 1.2 µg/mL (≈ 2.62 µM).
With CCOC(=O)C1=C(C)Oc2nc(C)n(Cc3cn(-c4cccc(C(F)(F)F)c4)nn3)c(=O)c2C1c1ccc([N+](=O)[O-])cc1 (stereo not given) the “diameter of the inhibition zone (DIZ)” value (Candida albicans [5]) was 10.5 mm and the “diameter of the inhibition zone (DIZ)” value (Aspergillus flavus) was 10.5 mm.
For CCOC(=O)C1=C(C)Oc2nc(C)n(Cc3cn(-c4cccc(F)c4)nn3)c(=O)c2C1c1ccc([N+](=O)[O-])cc1 (stereo not given), the “diameter of the inhibition zone (DIZ)” value (Candida albicans [5]) was 12 mm and the “diameter of the inhibition zone (DIZ)” value (Aspergillus flavus) was 12 mm.
Compound Cc1ccc2c(c1)c(=O)c1ccccc1n2Cc1cn(-c2ccccc2C)nn1 has an MIC (Staphylococcus aureus [6]) of 12.3 µg/mL (≈ 32.4 µM).
For Cc1ccccc1-n1cc(Cn2c3ccccc3c(=O)c3ccccc32)nn1, the MIC (Staphylococcus aureus [6]) was 10.1 µg/mL (≈ 27.6 µM).
In the case of CCOc1cccc(-n2cc(C(C)N3C(=O)C(=O)c4ccccc43)nn2)c1 (stereo not given), the “diameter of the inhibition zone (DIZ)” value (Staphylococcus aureus [7]) is reported as 10 mm.
For CCCNC(=O)c1nnn(-c2ccc(Br)cc2)c1C, the “growth inhibition (GI)” value (Candida albicans [8]) was 13.2%.
In the case of C=CCCC1CC(=O)N1Cc1cn(-c2ccc(Cl)cc2)nn1 (stereo not given), the MIC (Pseudomonas aeruginosa [9]) is reported as 1.25 µg/mL (≈ 3.95 µM) and the MIC (Bacillus subtilis [10]) is reported as 1.25 µg/mL (≈ 3.95 µM).
Work on O=c1cc(-c2ccccc2)c2cc(Cl)ccc2n1Cc1nnc2n1N=C(c1ccccc1)CS2 yielded an MIC (Escherichia coli [11]) of 2 µg/mL (≈ 4.13 µM), an MIC (Pseudomonas aeruginosa [12]) of 4 µg/mL (≈ 8.26 µM) and an MIC (Staphylococcus aureus [13]) of 2 µg/mL (≈ 4.13 µM). The MIC (Aspergillus fumigatus) was 8 µg/mL (≈ 16.5 µM), the MIC (Aspergillus niger [14]) was 2 µg/mL (≈ 4.13 µM) and the MIC (Candida albicans [15]) was 1 µg/mL (≈ 2.07 µM).
Compound COc1cc(/C=C/c2ccc(OCc3cn(CCCCCC(=O)O)nn3)cc2)cc(OC)c1 has an MIC (Staphylococcus aureus [4]) of 78.1 µg/mL (≈ 173 µM).
For CCCCNC(=O)c1nnn(-c2ccc(Br)cc2)c1C, the “growth inhibition (GI)” value (Candida albicans [8]) was 63.7%.
With COc1cc(/C=C/c2ccc(OCc3cn(Cc4ccc(C(=O)O)cc4)nn3)cc2)cc(OC)c1 the MIC (Staphylococcus aureus [4]) was 312 µg/mL (≈ 663 µM).
With S=c1[nH]nc(-c2ccc(Cl)cc2Cl)n1/N=C/c1ccco1 the “diameter of the inhibition zone (DIZ)” value (Staphylococcus aureus [1]) was 3 mm, the “diameter of the inhibition zone (DIZ)” value (Escherichia coli [2]) was 3 mm and the “diameter of the inhibition zone (DIZ)” value (Klebsiella pneumoniae) was 3 mm. For the same compound, the “diameter of the inhibition zone (DIZ)” value (Candida albicans [3]) was 3 mm.
With O=c1cc(-c2ccccc2)c2cc(Br)ccc2n1Cc1nnc2n1N=C(c1ccccc1)CS2 the MIC (Escherichia coli [11]) was 2 µg/mL (≈ 3.78 µM), the MIC (Pseudomonas aeruginosa [12]) was 4 µg/mL (≈ 7.57 µM) and the MIC (Staphylococcus aureus [13]) was 1 µg/mL (≈ 1.89 µM). It also gave an MIC (Aspergillus fumigatus) of 32 µg/mL (≈ 60.6 µM), an MIC (Aspergillus niger [14]) of 4 µg/mL (≈ 7.57 µM) and an MIC (Candida albicans [15]) of 2 µg/mL (≈ 3.78 µM).
Work on O=C(c1ccc(Cl)cc1)C(C(c1ccccc1)c1ccccc1)n1cncn1 (stereo not given) yielded an MIC (Candida albicans [16]) of 0.5 µg/mL (≈ 1.29 µM) and an MIC (Cryptococcus neoformans) of 0.5 µg/mL (≈ 1.29 µM).
Compound O=C(c1ccc(Br)cc1)C(Cc1ccccc1)n1cncn1 (stereo not given) has an MIC (Candida albicans [16]) of 0.5 µg/mL (≈ 1.4 µM) and an MIC (Cryptococcus neoformans) of 0.5 µg/mL (≈ 1.4 µM).
O=C(c1ccc(F)cc1)C(C(c1ccccc1)c1ccccc1)n1cncn1 (stereo not given) gave an MIC (Candida albicans [16]) of 0.5 µg/mL (≈ 1.35 µM) and an MIC (Cryptococcus neoformans) of 0.5 µg/mL (≈ 1.35 µM).
COc1ccc(N2C(=O)CSC2c2cn(-c3ccccc3)nc2-c2nnn(-c3ccccc3)c2C)cc1 (stereo not given) showed an MIC (Bacillus subtilis [17]) of 1.56 µg/mL, an MIC (Micrococcus luteus) of 1.56 µg/mL and an MIC (Staphylococcus aureus [18]) of 1.56 µg/mL. The MIC (Proteus vulgaris) was 1.56 µg/mL, the MIC (Salmonella typhimurium) was 1.56 µg/mL and the MIC (Escherichia coli [19]) was 1.56 µg/mL.
Work on CCCCCCCCCCCCCCCc1nnc(S)n1/N=C\c1ccc([N+](=O)[O-])cc1 yielded an MIC (Aspergillus niger [20]) of 27.1 µg/mL (≈ 59 µM).
Cc1c(-c2nn(-c3ccccc3)cc2C2SCC(=O)N2c2cc(F)ccc2F)nnn1-c1ccccc1 (stereo not given) gave an MIC (Bacillus subtilis [17]) of 1.56 µg/mL, an MIC (Micrococcus luteus) of 1.56 µg/mL and an MIC (Staphylococcus aureus [18]) of 1.56 µg/mL. For the same compound, the MIC (Proteus vulgaris) was 1.56 µg/mL, the MIC (Salmonella typhimurium) was 1.56 µg/mL and the MIC (Escherichia coli [19]) was 1.56 µg/mL.
CC(c1ccc(Br)cc1)n1cc(Cn2cc(/C=C/C(=O)c3ccc(Br)cc3)c3ccccc32)nn1 (stereo not given) showed an MIC (Escherichia coli [21]) of 10.9 µM (≈ 6.43 µg/mL) and an MIC (Bacillus subtilis [22]) of 10.9 µM (≈ 6.43 µg/mL).
With CCCCNC(=O)c1nnn(-c2ccc(C)cc2)c1CCC the “growth inhibition (GI)” value (Candida albicans [8]) was 21.2%.
In the case of COc1cc(/C=N/n2c(-c3ccc(Cl)cc3)n[nH]c2=S)ccc1O, the “diameter of the inhibition zone (DIZ)” value (Staphylococcus aureus [1]) is reported as 4 mm, the “diameter of the inhibition zone (DIZ)” value (Escherichia coli [2]) is reported as 4 mm and the “diameter of the inhibition zone (DIZ)” value (Klebsiella pneumoniae) is reported as 4 mm. The “diameter of the inhibition zone (DIZ)” value (Candida albicans [3]) was 4 mm.

From ChEMBL document CHEMBL5634077, “Recent advances in 1,2,3- and 1,2,4-triazole hybrids as antimicrobials and their SAR: A critical review” (2023)
